Data: patent publication US10328114B2, “Lung injury repair compositions and methods” (University of Iowa Research Foundation, priority 2015, dated 2019)
“Also recorded” adds a separate entry of the source. *: point of attachment. Myristoyl = CCCCCCCCCCCCCC(=O)*

System: bleomycin induced ALI mouse model
Assay: In vivo lung μCT scan in bleomycin ALI model
Conditions: week 6
Protocol: Animal protocols were approved by the Institutional Animal Care and Use Committee at the University of Iowa. C57BL/6 mice (Jackson Laboratories, Bar Harbor, Me.) were anesthetized followed by intratracheal instillation of: (A) Control (Ctrl): 1 μl of DMSO (Sigma, St. Louis, Mo.) plus 49 μl of PBS; (B) Bleomycin (Bleo): 1 μl of DMSO plus 49 μl of bleomycin (APP pharmaceuticals, LLC Schaumburg, Ill.) dissolved in PBS (4 U/kg); (C) Bleomycin/PKCζi (Bleo/PKCζi): 1 μg of PKCζi (Calbiochem EMD Biosciences, San Diego, Calif.) solubilized in 1 μl of DMSO plus 49 μl of bleomycin (4 U/Kg) dissolved in PBS (Calbiochem EMD Biosciences, San Diego, Calif.). After this treatment, all mice were instilled (50 μl) every 72 hours with 1 μl of DMSO plus 49 μl of PBS in the Ctrl and Bleo group or with 1 μg of PKCζi dissolved in 1 μl of DMSO plus 49 μl of PBS in the Bleo/PKCζi group for the duration of the experiment. Mice were treated for up to 6 weeks (FIG. 1A). All conditions had between 4 to 6 animals.
High resolution scanning coupled to a computer controlled respirator to reduce ventilation motion artifacts was performed as described previously (27).

With “N-Myristoyl-Ser-Ile-Tyr-Arg-Arg-Gly-Ala-Arg-Arg-Trp-Arg-Lys-Leu-OH (Myristoyl-SIYRRGARRWRKL-OH; SMILES CCCCCCCCCCCCCC(=O)N[C@@H](CO)C(=O)N[C@H](C(=O)N[C@@H](Cc1ccc(O)cc1)C(=O)N[C@@H](CCCNC(=N)N)C(=O)N[C@@H](CCCNC(=N)N)C(=O)NCC(=O)N[C@@H](C)C(=O)N[C@@H](CCCNC(=N)N)C(=O)N[C@@H](CCCNC(=N)N)C(=O)N[C@@H](Cc1c[nH]c2ccccc12)C(=O)N[C@@H](CCCNC(=N)N)C(=O)N[C@@H](CCCCN)C(=O)N[C@@H](CC(C)C)C(=O)O)[C@@H](C)CC) [PKCζi]” the “lung injury on μCT” value was “confirmed lung injury resolution; also recorded: complete resolution in the PKCζi group at week 6” and the “lung injury on μCT” value (listed as PKC-ζi) was “confirmed lung injury resolution”.
